# From patent publication US12679843B2, “Pyrrolopyrimidine amines as complement inhibitors” (BioCryst Pharmaceuticals, Inc., priority 2020, dated 2026)
# Molecular target: Factor D (Homo sapiens, UniProt P00746)
# Experiment: Factor D esterolytic assay (Z-Lys-SBzl thioester substrate, DTNB, 405 nm)
# Assay type: biochemical
# Conditions: substrate Z-Lys-SBzl 1.29 mM, 100 mM HEPES, 500 mM NaCl, pH 7.5, 10% DMSO, tested a minimum of three times
# Description: The IC50 value of a compound (i.e., the concentration of the compound that inhibits 50% of the enzymatic activity) was calculated according to the procedure reported in U.S. Pat. No. 6,653,340 B1, e.g., column 74 (incorporated by reference).
# Specifically, the compounds were dissolved in a stock solution of DMSO at 10.0 or 100 mM. A portion of this stock solution was added to assay buffer in a final volume of 50 μL. Controls included buffer alone and enzyme solutions to which DMSO was added. Substrate was added to the reaction wells immediately or after incubation at room temperature. The reaction rates were measured spectrophotometrically by the generation of product at 405 nm for 600 sec. Background absorbance at 690 nm was measured and subtracted from the absorbance at 405 nm for each well.
# The reaction rate for enzyme alone was compared to the rate of enzyme in the presence of inhibitor and the percent inhibition was calculated as shown below: Percent Inhibition=[Rate without inhibitor−Rate with inhibitor)/(Rate without inhibitor)]−100 Factor D Esterolytic Assay:
# An established esterolytic assay for the measurement of Factor D activity and inhibition of Factor D activity was used (Kam, C. M.; McRae, B. J.; Harper, J. W.; Niemann, M. A.; Volanakis, J. E.; Powers, J. C. Human complement proteins D. C2, and B Active site mapping with peptide thioester substrates. J Biol. Chem. 1987, 262, 3444-3451). For this assay Z-Lys-SBzl, 1.29 mM (Kim, S.; Narayana, S. V. L; Volanakis, J. E. Mutational analysis of the substrate binding site of human complement Factor D. Biochemistry, 1994, 33, 14393-14399) was used as the substrate for Factor D ([…]). Hydrolysis of this compound by Factor D liberated a free sulfhydryl group which is then reacted with 5,5′-dithiobis(2-nitrobenzoic acid) producing an intense yellow color (Habeeb, A. F. S. A. Reaction of protein sulfhydryl groups with Ellman's Reagent. Methods in Enzymol. 1976, 25, 457-464). The assays were performed in 96 well microtiter plates and rates of hydrolysis were monitored at 405 nm on a Biotek Synergy H1 plate reader. Hydrolysis rates were reported as change in mOD/min. The assay was conducted in 100 mM HEPES, 500 mM NaCl, pH 7.5 containing 10% DMSO in a final volume of 50 μL per well.
# An IC50, a compound concentration which inhibits 50% of the enzymatic activity, was calculated. Compounds in the examples were tested a minimum of three times.
# Chain of Factor D (P00746 26-253): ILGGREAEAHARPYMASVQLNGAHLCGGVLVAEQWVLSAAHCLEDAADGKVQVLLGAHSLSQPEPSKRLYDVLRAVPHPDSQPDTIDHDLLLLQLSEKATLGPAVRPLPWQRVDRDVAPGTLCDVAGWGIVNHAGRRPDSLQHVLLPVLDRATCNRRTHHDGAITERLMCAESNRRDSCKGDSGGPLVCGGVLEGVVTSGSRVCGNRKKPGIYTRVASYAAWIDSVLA
row,IC50 [nM],Compound
1,< 100,"Cc1cc(C(F)(F)F)cc2c3c(N)ncnc3n(CC(=O)N3[C@@H]4C[C@@H]4C[C@H]3C(=O)Nc3cncc(Cl)n3)c12 [Compound 326c, (1R,3S,5R)-2-(2-(4-amino-8-methyl-6-(trifluoromethyl)-9H-pyrimido[4,5-b]indol-9-yl)acetyl)-N-(6-chloropyrazin-2-yl)-2-azabicyclo[3.1.0]hexane-3-carboxamide]"
2,< 100,"Nc1ncnc2c1c1cccc(F)c1n2CC(=O)N1[C@@H]2C[C@@H]2C[C@H]1C(=O)Nc1cccc(Br)n1 [Compound 51g, (1R,3S,5R)-2-(2-(4-amino-8-fluoro-9H-pyrimido[4,5-b]indol-9-yl)acetyl)-N-(6-bromopyridin-2-yl)-2-azabicyclo[3.1.0]hexane-3-carboxamide]"
3,< 100,"Cc1ccc(Br)nc1NC(=O)[C@@H]1C[C@@H](F)CN1C(=O)Cn1c2ccc(C(F)(F)F)cc2c2c(N)ncnc21 [Compound 14a, (2S,4R)-1-(2-(4-amino-6-(trifluoromethyl)-9H-pyrimido[4,5-b]indol-9-yl)acetyl)-N-(6-bromo-3-methylpyridin-2-yl)-4-fluoropyrrolidine-2-carboxamide]"
4,< 100,"Cc1ccc2c(c1)c1c(N)ncnc1n2CC(=O)N1[C@@H]2C[C@@H]2C[C@H]1C(=O)Nc1cccc(Br)n1 [Compound 6e, (1R,3S,5R)-2-(2-(4-amino-6-methyl-9H-pyrimido[4,5-b]indol-9-yl)acetyl)-N-(6-bromopyridin-2-yl)-2-azabicyclo[3.1.0]hexane-3-carboxamide]"
5,< 100,"Cc1ccc2c(c1)c1c(N)ncnc1n2CC(=O)N1C[C@H](F)C[C@H]1C(=O)Nc1cccc(Br)n1 [Compound 21a, (2S,4R)-1-(2-(4-amino-6-methyl-9H-pyrimido[4,5-b]indol-9-yl)acetyl)-N-(6-bromopyridin-2-yl)-4-fluoropyrrolidine-2-carboxamide]"
6,100 to 1000,"Nc1ncnc2c1c(Br)cn2CC(=O)N1C[C@H](F)C[C@H]1C(=O)NCc1cccc(Cl)c1F [Compound 116b, (2S,4R)-1-(2-(4-amino-5-bromo-7H-pyrrolo[2,3-d]pyrimidin-7-yl)acetyl)-N-(3-chloro-2-fluorobenzyl)-4-fluoropyrrolidine-2-carboxamide]"
7,< 100,"Cc1cc(-c2ccncc2)cc2c3c(N)ncnc3n(CC(=O)N3[C@H](C(=O)Nc4cccc(Br)n4)C[C@@]4(C)C[C@@H]34)c12 [Compound 264a, (1R,3S,5R)-2-(2-(4-amino-8-methyl-6-(pyridin-4-yl)-9H-pyrimido[4,5-b]indol-9-yl)acetyl)-N-(6-bromopyridin-2-yl)-5-methyl-2-azabicyclo[3.1.0]hexane-3-carboxamide]"
8,< 100,"Cc1cc(C(F)(F)F)cc2c3c(N)ncnc3n(CC(=O)N3[C@@H]4C[C@@H]4C[C@H]3C(=O)Nc3cccc(OC(F)F)n3)c12 [Compound 345c, (1R,3S,5R)-2-(2-(4-amino-8-methyl-6-(trifluoromethyl)-9H-pyrimido[4,5-b]indol-9-yl)acetyl)-N-(6-(difluoromethoxy)pyridin-2-yl)-2-azabicyclo[3.1.0]hexane-3-carboxamide]"
9,< 100,"Cc1ccccc1-c1ccc2c(c1)c1c(N)ncnc1n2CC(=O)N1[C@@H]2C[C@@H]2C[C@H]1C(=O)Nc1cccc(Br)n1 [Compound 197c, (1R,3S,5R)-2-(2-(4-amino-6-(o-tolyl)-9H-pyrimido[4,5-b]indol-9-yl)acetyl)-N-(6-bromopyridin-2-yl)-2-azabicyclo[3.1.0]hexane-3-carboxamide]"
10,100 to 1000,"Nc1ncnc2c1c(F)cn2CC(=O)N1C[C@H](F)C[C@H]1C(=O)NCc1cccc(Cl)c1F [Compound 125d, (2S,4R)-1-(2-(4-amino-5-fluoro-7H-pyrrolo[2,3-d]pyrimidin-7-yl)acetyl)-N-(3-chloro-2-fluorobenzyl)-4-fluoropyrrolidine-2-carboxamide]"
11,< 100,"Nc1ncnc2c1c1ccncc1n2CC(=O)N1[C@@H]2C[C@@H]2C[C@H]1C(=O)Nc1cccc(Br)n1 [Compound 29f, (1R,3S,5R)-2-(2-(4-amino-9H-pyrido[4′,3′:4,5]pyrrolo[2,3-d]pyrimidin-9-yl)acetyl)-N-(6-bromopyridin-2-yl)-2-azabicyclo[3.1.0]hexane-3-carboxamide]"
12,< 100,"Cc1cc(F)c2c(c1)c1c(N)ncnc1n2CC(=O)N1[C@H](C(=O)Nc2cccc(Br)n2)C[C@@]2(C)C[C@@H]12 [Compound 392a, (1R,3S,5R)-2-(2-(4-amino-8-fluoro-6-methyl-9H-pyrimido[4,5-b]indol-9-yl)acetyl)-N-(6-bromopyridin-2-yl)-5-methyl-2-azabicyclo[3.1.0]hexane-3-carboxamide]"
13,< 100,"Nc1ncnc2c1c1cc(OC(F)(F)F)ccc1n2CC(=O)N1[C@@H]2C[C@@H]2C[C@H]1C(=O)Nc1cccc(Br)n1 [Compound 274g, (1R,3S,5R)-2-(2-(4-amino-6-(trifluoromethoxy)-9H-pyrimido[4,5-b]indol-9-yl)acetyl)-N-(6-bromopyridin-2-yl)-2-azabicyclo[3.1.0]hexane-3-carboxamide]"
14,< 100,"Cc1cc(C(F)(F)F)cc2c3c(N)ncnc3n(CC(=O)N3C[C@](C)(F)C[C@H]3C(=O)Nc3cccc(Br)n3)c12 [Compound 304a, (2S,4R)-1-(2-(4-amino-8-methyl-6-(trifluoromethyl)-9H-pyrimido[4,5-b]indol-9-yl)acetyl)-N-(6-bromopyridin-2-yl)-4-fluoro-4-methylpyrrolidine-2-carboxamide]"
15,< 100,"C[C@@]12C[C@@H](C(=O)Nc3cccc(Br)n3)N(C(=O)Cn3c4ccc(Cl)cc4c4c(N)ncnc43)[C@@H]1C2 [Compound 237a, (1R,3S,5R)-2-(2-(4-amino-6-chloro-9H-pyrimido[4,5-b]indol-9-yl)acetyl)-N-(6-bromopyridin-2-yl)-5-methyl-2-azabicyclo[3.1.0]hexane-3-carboxamide]"
16,< 100,"COc1ccc2c3c(N)ncnc3n(CC(=O)N3[C@H](C(=O)Nc4cccc(Br)n4)C[C@@]4(C)C[C@@H]34)c2c1 [Compound 37a, (1R,3S,5R)-2-(2-(4-amino-7-methoxy-9H-pyrimido[4,5-b]indol-9-yl)acetyl)-N-(6-bromopyridin-2-yl)-5-methyl-2-azabicyclo[3.1.0]hexane-3-carboxamide]"
17,< 100,"Cc1cc(C(F)(F)F)cc2c3c(N)ncnc3n(CC(=O)N3C[C@H](F)C[C@H]3C(=O)Nc3cccc(Br)n3)c12 [Compound 301a, (2S,4R)-1-(2-(4-amino-8-methyl-6-(trifluoromethyl)-9H-pyrimido[4,5-b]indol-9-yl)acetyl)-N-(6-bromopyridin-2-yl)-4-fluoropyrrolidine-2-carboxamide]"
18,< 100,"Cc1ccc(-c2ccc3c(c2)c2c(N)ncnc2n3CC(=O)N2[C@@H]3C[C@@H]3C[C@H]2C(=O)Nc2cccc(Br)n2)cc1 [Compound 205c, (1R,3S,5R)-2-(2-(4-amino-6-(p-tolyl)-9H-pyrimido[4,5-b]indol-9-yl)acetyl)-N-(6-bromopyridin-2-yl)-2-azabicyclo[3.1.0]hexane-3-carboxamide]"
19,< 100,"CC(C)(C)OC(=O)Nc1ccc2c(c1)c1c(N)ncnc1n2CC(=O)N1[C@@H]2C[C@@H]2C[C@H]1C(=O)Nc1cccc(Br)n1 [Compound 48d, tert-butyl (4-amino-9-(2-((1R,3S,5R)-3-((6-bromopyridin-2-yl)carbamoyl)-2-azabicyclo[3.1.0]hexan-2-yl)-2-oxoethyl)-9H-pyrimido[4,5-b]indol-6-yl)carbamate]"
20,< 100,"Nc1ncnc2c1c(-c1cccc3cc[nH]c13)cn2CC(=O)N1C[C@H](F)C[C@H]1C(=O)NCc1cccc(Cl)c1F [Compound 134b, (2S,4R)-1-(2-(4-amino-5-(1H-indol-7-yl)-7H-pyrrolo[2,3-d]pyrimidin-7-yl)acetyl)-N-(3-chloro-2-fluorobenzyl)-4-fluoropyrrolidine-2-carboxamide]"
21,> 1000,"Nc1ncnc2c1ncn2CC(=O)N1[C@@H]2C[C@@H]2C[C@H]1C(=O)NCCOC(F)(F)F [Compound 99b, (1R,3S,5R)-2-(2-(6-amino-9H-purin-9-yl)acetyl)-N-(2-(trifluoromethoxy)ethyl)-2-azabicyclo[3.1.0]hexane-3-carboxamide]"
22,< 100,"Cc1ccc(-c2cc(C)c3c(c2)c2c(N)ncnc2n3CC(=O)N2[C@@H]3C[C@@H]3C[C@H]2C(=O)Nc2cccc(Br)n2)cc1 [Compound 256a, (1R,3S,5R)-2-(2-(4-amino-8-methyl-6-(p-tolyl)-9H-pyrimido[4,5-b]indol-9-yl)acetyl)-N-(6-bromopyridin-2-yl)-2-azabicyclo[3.1.0]hexane-3-carboxamide]"
